Laboratory results from patent publication US12082579B2, “Compositions and methods to manage hemiptera” (ISCA Technologies, Inc., priority 2021, dated 2024).

System: Diceraus melacanthus
Assay: Field study in a wheat harvest area: attraction of stink bugs by pear ester versus regular pheromone, 24 hour period, six blocks
Type: in vivo
Conditions: for attraction rate (stink bugs attracted per treatment): wheat harvest area
Experimental: A study was conducted to evaluate the effectiveness of pear ester versus regular pheromone to attract sting bugs. In particular, a study was conducted in a wheat harvest area in an attempt to attract the stink bug, Diceraus melacanthus.

## CCCCC/C=C\C=C\C(=O)OCC [Pear Ester, Ethyl-2E,4Z-decadienoate]
24 hour period, six blocks, result in words
  attraction rate compared with regular pheromone: at least, the same as the regular pheromone
Block 1, 24 hour period
  attraction rate (stink bugs attracted per treatment): 3
Block 2, 24 hour period
  attraction rate (stink bugs attracted per treatment): 1
Block 3, 24 hour period
  attraction rate (stink bugs attracted per treatment): 0
Block 4, 24 hour period
  attraction rate (stink bugs attracted per treatment): 0
Block 5, 24 hour period
  attraction rate (stink bugs attracted per treatment): 3
Block 6, 24 hour period
  attraction rate (stink bugs attracted per treatment): 1
Mean of six blocks, 24 hour period
  attraction rate, Mean: 1.33
Sum of six blocks, 24 hour period
  attraction rate, Sum: 8.00
Stink bugs, including Diceraus melacanthus, Nezara viridula, Piezodorus guildinii, Tibraca limbativentris, Chinavia spp, Edessa meditabunda, Euschistus heros, result in words
  attractant effect on stink bugs: clearly has an attractant effect
